Source: publication doi:10.1101/208439v1 (biorxiv, 2017)
Like-named read-outs stand apart in the source and are kept apart here. Blank lines part the entries; values can stand above or below the compound they belong to.

Legend:
EZH1 Complex = molecular target: T1, EZH1 Complex (Homo sapiens, UniProt Q92800); assay: HotSpot [3H]SAM filter-binding methyltransferase assay; type: biochemical
T1 construct: five-member complex, Flag-EED, other subunits His-tagged, insect cells; with Zinc finger protein AEBP2; Polycomb protein EED; Polycomb protein SUZ12

MLL4 Complex = MLL4 Complex (Homo sapiens, UniProt Q9UMN6); assay: as above; type: biochemical; design: gene KMT2B; complex assembled as MLL1; MLL4 here is KMT2B (NM_014727), His tag, E. coli; with WD repeat-containing protein 5; Set1/Ash2 histone methyltransferase complex subunit ASH2; Protein dpy-30 homolog
SET1b Complex = SET1b Complex (Homo sapiens, UniProt Q9UPS6); assay: as above; type: biochemical; design: gene SETD1B; complex assembled as MLL1; SET1B N-terminal GST tag, E. coli; with WD repeat-containing protein 5; Set1/Ash2 histone methyltransferase complex subunit ASH2; Protein dpy-30 homolog
NSD2 = molecular target: T2, NSD2 (Homo sapiens, UniProt O96028, E1099K); assay: biochemical; design: MTase-Glo bioluminescence methyltransferase assay, full-length NSD2 with HeLa nucleosomes; details: read-out: MTase-Glo IC50
T2 construct: full length (residues 2-1365), N-terminal His tag, insect cell/baculovirus
T2 sequence (O96028 2-1365 E1099K): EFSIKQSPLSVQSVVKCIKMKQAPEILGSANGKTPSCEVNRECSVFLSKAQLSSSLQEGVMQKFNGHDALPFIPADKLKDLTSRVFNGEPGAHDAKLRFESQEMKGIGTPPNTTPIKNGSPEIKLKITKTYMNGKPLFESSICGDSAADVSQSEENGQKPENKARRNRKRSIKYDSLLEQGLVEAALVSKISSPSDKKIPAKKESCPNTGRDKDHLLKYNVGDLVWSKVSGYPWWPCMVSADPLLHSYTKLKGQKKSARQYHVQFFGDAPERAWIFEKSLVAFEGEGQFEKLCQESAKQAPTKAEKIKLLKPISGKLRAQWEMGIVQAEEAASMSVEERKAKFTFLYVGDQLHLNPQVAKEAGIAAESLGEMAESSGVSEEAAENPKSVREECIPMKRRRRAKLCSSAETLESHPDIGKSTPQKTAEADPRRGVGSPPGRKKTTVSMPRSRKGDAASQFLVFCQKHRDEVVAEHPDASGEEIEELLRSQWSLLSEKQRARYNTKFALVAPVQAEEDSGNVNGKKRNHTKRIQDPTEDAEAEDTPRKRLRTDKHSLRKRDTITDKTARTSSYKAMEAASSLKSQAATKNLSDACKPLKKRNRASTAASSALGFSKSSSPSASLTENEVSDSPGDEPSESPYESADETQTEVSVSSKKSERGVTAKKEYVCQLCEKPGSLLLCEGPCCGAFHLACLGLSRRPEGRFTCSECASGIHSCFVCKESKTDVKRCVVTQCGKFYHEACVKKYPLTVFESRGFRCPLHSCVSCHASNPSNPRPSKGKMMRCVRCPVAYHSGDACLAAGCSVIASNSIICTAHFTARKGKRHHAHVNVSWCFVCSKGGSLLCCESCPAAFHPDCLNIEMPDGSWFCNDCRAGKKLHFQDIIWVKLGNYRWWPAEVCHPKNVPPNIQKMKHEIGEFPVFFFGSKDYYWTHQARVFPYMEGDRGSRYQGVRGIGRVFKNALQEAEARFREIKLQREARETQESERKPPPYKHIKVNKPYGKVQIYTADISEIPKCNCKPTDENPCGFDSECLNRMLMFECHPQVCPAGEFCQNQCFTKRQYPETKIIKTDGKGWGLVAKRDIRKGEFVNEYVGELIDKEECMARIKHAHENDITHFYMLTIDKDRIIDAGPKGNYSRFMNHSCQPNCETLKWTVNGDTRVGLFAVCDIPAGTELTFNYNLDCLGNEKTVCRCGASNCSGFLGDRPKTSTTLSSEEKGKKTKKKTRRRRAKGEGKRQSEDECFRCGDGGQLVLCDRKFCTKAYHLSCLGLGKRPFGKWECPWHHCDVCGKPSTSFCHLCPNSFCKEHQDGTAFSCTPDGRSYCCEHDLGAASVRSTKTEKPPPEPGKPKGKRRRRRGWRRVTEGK
From the text: A major challenge in screening for small molecule inhibitors is that native NSD2 requires nucleosomes as a substrate ([17]). […] Chemical libraries were screened in 3-dose point quantitative high-throughput screening (qHTS) format ([43]) with the Methyltransferase-Glo (MTase-Glo™) methyltransferase bioluminescence assay ([44]). A number of counter and orthogonal assays were also developed to characterize the hits from the primary screen. Confirmed hits were validated with a radiolabeled SAM substrate-based NSD2 activity assay and further interrogated with binding studies by surface plasmon resonance (SPR), methyltransferase profiling, and activity assessments in U-2 OS cells. […] Overall the reaction conditions were very similar.

PRMT5 = PRMT5 (Homo sapiens, UniProt O14744); assay: biochemical
DNMT3b/3L = DNMT3b/3L (Homo sapiens, UniProt Q9UBC3); assay: biochemical
[1] = read-out: DA3003-1 IC50, inhibitor

Sequence of SET1b Complex (Q15291 whole entry): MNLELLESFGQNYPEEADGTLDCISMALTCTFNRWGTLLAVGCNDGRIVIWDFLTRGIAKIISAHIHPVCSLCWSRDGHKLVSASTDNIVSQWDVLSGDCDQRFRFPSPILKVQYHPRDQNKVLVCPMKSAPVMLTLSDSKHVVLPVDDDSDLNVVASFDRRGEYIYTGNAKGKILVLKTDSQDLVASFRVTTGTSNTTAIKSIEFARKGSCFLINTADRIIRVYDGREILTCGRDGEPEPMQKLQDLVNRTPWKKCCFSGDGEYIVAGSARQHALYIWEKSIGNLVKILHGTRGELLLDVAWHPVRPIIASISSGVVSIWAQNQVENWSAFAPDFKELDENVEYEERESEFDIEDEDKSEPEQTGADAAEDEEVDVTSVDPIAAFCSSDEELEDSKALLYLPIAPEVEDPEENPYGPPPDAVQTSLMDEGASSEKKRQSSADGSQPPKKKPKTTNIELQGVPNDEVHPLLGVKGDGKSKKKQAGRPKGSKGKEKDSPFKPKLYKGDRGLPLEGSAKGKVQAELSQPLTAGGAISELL
Sequence of SET1b Complex (Q9UPS6 1672-1966): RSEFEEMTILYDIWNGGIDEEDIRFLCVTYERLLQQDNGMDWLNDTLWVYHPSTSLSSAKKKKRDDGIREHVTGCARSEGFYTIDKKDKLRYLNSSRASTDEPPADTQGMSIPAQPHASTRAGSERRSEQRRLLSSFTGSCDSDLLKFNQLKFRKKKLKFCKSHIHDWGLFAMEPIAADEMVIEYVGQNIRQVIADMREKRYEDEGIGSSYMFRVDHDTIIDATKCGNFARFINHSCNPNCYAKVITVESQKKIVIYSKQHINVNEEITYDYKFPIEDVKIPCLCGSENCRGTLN
Sequence of SET1b Complex (Q9C005 whole entry, further chain): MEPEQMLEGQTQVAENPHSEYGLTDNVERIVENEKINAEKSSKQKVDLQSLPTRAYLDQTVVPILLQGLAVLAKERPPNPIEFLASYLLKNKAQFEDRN
Sequence of SET1b Complex (Q9UBL3 96-628, further chain): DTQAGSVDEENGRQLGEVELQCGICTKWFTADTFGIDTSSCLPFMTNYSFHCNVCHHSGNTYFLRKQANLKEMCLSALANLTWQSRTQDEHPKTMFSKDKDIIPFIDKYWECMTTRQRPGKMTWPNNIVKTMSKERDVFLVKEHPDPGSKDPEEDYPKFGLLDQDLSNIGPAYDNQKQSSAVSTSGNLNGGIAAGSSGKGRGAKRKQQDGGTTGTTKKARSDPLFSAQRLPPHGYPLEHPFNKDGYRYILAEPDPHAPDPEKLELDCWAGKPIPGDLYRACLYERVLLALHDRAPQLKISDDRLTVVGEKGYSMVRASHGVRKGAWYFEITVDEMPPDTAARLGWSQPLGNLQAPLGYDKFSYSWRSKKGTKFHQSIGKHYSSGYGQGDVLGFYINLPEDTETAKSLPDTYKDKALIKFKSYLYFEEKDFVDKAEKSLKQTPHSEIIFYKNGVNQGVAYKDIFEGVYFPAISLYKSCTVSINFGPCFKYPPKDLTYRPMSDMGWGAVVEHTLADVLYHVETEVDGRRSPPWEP
T1 sequence (Q92800 2-747): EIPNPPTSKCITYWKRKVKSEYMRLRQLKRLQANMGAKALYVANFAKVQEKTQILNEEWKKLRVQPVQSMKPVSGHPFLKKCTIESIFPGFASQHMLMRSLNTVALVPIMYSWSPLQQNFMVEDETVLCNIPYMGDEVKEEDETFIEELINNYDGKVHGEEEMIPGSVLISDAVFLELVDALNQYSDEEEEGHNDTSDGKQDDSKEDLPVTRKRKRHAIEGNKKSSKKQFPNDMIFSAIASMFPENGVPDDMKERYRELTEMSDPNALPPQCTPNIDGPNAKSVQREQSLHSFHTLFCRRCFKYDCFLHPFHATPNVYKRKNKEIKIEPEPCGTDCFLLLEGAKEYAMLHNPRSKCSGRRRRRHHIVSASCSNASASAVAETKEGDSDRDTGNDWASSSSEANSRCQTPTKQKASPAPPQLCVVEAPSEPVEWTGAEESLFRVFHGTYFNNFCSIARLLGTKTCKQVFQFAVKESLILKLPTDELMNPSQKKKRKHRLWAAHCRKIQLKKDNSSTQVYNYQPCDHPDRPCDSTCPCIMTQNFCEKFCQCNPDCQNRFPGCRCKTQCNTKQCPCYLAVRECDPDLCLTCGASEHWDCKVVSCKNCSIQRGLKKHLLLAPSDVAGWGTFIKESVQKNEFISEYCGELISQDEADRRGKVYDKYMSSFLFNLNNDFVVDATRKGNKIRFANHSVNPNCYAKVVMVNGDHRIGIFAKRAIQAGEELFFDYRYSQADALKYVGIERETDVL
T1 sequence (O75530 2-441 partner): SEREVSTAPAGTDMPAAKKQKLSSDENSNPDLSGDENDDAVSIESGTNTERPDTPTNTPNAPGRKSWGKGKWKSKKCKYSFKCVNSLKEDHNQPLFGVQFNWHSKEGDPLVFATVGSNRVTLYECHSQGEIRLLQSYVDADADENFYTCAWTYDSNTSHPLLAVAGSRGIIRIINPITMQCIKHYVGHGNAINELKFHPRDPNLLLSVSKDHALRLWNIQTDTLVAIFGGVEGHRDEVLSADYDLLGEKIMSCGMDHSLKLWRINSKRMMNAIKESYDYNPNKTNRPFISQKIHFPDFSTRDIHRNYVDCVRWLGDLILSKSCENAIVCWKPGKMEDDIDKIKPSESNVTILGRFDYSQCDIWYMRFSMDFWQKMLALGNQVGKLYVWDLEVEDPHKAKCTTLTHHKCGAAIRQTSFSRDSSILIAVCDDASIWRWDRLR
T1 sequence (Q15022 2-739 partner): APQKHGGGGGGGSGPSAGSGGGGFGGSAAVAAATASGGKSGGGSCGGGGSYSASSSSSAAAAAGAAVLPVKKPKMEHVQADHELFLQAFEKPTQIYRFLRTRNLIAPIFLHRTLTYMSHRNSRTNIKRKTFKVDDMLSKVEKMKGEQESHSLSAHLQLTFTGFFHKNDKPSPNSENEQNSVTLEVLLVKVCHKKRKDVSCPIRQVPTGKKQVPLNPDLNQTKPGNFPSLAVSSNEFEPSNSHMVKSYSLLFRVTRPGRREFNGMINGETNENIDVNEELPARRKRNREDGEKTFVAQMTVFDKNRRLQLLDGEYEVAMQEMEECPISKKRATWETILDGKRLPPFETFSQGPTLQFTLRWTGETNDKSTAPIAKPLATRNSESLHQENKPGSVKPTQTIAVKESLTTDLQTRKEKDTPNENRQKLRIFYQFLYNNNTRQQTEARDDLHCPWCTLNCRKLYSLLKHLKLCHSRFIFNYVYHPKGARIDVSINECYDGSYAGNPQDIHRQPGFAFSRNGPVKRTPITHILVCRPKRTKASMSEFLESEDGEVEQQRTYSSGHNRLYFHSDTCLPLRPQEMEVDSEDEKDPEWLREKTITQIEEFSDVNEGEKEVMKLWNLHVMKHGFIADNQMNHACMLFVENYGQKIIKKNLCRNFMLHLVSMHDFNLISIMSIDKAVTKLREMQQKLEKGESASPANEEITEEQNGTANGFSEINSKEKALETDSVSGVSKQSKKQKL
T1 sequence (Q09028 2-425 partner): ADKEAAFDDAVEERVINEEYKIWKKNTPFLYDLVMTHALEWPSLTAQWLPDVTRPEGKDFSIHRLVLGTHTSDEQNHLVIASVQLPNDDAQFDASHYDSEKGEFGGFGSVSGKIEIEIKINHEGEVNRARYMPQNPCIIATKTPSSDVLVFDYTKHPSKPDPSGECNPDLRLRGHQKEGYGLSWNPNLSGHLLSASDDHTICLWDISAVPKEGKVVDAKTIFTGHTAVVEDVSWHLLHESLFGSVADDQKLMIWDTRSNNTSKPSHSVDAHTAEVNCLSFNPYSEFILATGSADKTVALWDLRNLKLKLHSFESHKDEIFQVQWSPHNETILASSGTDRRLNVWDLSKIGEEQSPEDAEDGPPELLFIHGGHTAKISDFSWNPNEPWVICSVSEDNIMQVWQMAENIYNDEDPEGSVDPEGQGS
T1 sequence (Q6ZN18 2-517 partner): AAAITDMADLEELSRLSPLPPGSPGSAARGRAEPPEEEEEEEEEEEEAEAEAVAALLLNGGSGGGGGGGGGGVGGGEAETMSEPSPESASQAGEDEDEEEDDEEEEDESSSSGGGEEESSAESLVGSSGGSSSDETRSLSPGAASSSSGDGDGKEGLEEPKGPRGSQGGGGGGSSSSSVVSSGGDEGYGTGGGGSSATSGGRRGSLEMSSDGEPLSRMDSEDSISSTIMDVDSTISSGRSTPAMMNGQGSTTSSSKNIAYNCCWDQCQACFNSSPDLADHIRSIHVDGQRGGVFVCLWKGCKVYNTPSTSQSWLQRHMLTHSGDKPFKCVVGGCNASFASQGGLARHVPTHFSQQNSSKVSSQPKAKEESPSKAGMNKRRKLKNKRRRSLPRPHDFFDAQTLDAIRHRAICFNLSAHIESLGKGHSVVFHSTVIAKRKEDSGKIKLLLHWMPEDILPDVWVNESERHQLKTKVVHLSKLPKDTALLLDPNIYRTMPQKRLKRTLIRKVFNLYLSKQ
Sequence of MLL4 Complex (Q9C005 whole entry): as the sequence (Q9C005 whole entry, further chain) above
Sequence of MLL4 Complex (Q9UBL3 96-628, further chain): as the sequence (Q9UBL3 96-628, further chain) above
Sequence of MLL4 Complex (Q15291 whole entry, further chain): as the sequence (Q15291 whole entry) above
Sequence of MLL4 Complex (Q9UMN6 2490-2715): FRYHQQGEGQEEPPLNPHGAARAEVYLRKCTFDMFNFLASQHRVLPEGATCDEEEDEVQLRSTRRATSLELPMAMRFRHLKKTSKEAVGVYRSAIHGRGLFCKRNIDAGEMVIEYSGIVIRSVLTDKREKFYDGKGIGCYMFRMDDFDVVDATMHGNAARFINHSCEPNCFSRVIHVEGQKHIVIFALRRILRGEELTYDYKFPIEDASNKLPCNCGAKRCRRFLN

- IC50 (EZH1 Complex): 66 µM
- IC50 (MLL4 Complex): 0.52 µM
- IC50 (SET1b Complex): 7.1 µM
- IC50 (NSD2): 15 µM
Compound: CC1(C)CCC(CN2CCN(c3ccc(C(=O)NS(=O)(=O)c4ccc(NCC5CCOCC5)c([N+](=O)[O-])c4)c(Oc4cnc5[nH]ccc5c4)c3)CC2)=C(c2ccc(Cl)cc2)C1 [ABT-199]

- IC50 (PRMT5; [1]): 0.65 µM
- IC50 (DNMT3b/3L; [1]): 0.72 µM
- IC50 (NSD2; inhibitor): 2.8 µM
Compound: O=C1C(Cl)=C(NCCN2CCOCC2)C(=O)c2ncccc21 [DA3003-1]

- IC50 (PRMT5): 17 µM
- IC50 (EZH1 Complex; core histone, […] SAM, pH […] EDTA, […] DTT, […] °C, single experiment): 40 µM
- IC50 (MLL4 Complex; nucleosomes, […] SAM, pH […] MgCl2, […] DTT, […] °C, single experiment): 1 µM
- IC50 (DNMT3b/3L): 30 µM
- IC50 (SET1b Complex; core histone, […] SAM, pH […] MgCl2, […] DTT, […] °C, single experiment): 8 µM
Compound: COc1cccc(-n2nc(C(=O)O)cc2-c2ccc(C3CCCCC3)c(Cl)c2)c1 [TC LPA5 4]
